Laboratory results taken from patent US20200031820A1, “3-CARBOXYLIC ACID PYRROLES AS NRF2 REGULATORS” (GLSXOSMITHKLINE INTELLECTUAL PROPERTY DEVELOPMENT LIMITED, priority 2016, published 2020).

Key:
[1] = tested on: NQO1 specific enzyme activity in BEAS-2B cells (marker for NRF2 activation); assay: Beas2B NQO1 MTT Assay; format: cell-based; conditions: Homo sapiens, NQO1 specific activity induction, 48 hours with compound
From the text: NAD(P)H:quinone oxidoreductase 1 (NQO1), also called DT diaphorase, is a homodimeric FAD-containing enzyme that catalyses obligatory NAD(P)H-dependent two-electron reductions of quinones and protects cells against the toxic and neoplastic effects of free radicals and reactive oxygen species arising from one-electron reductions. The transcription of NQO1 is finely regulated by NRF2, and thus NQO1 activity is a good marker for NRF2 activation. On day one, frozen BEAS-2B cells (ATCC) were thawed in a water bath, counted, and re-suspended at a concentration of 250,000 cells/mL. Fifty microliters of cells were plated in 384 well black clear-bottomed plates. Plates were incubated at 37° C., 5% CO2 overnight. On day two, plates were centrifuged and 50 nL of compound or controls were added to the cells. Plates were then incubated at 37° C., 5% CO2 for 48 hours. On day four, medium was aspirated from the plate and crude cell lysates were made by adding 13 uL of 1× Cell Signaling Technologies lysis buffer with 1 Complete, Mini, EDTA-free Protease Inhibitor Tablet (Roche) for each 10 mL of lysis buffer. After lysis plates were incubated for 20 minutes at room temperature. Two microliters of lysate were removed for use in Cell Titer Glo assay (Promega) and MTT cocktail was prepared (Prochaska et. al. 1998) for measurement of NQO1 activity. Fifty microliters of MTT cocktail was added to each well, plate was centrifuged, and analysed on an Envision plate reader (Perkin Elmer) using Absorbance 570 nm label for 30 minutes. Product formation was measured kinetically and the pEC50 of NQO1 specific activity induction was calculated by plotting the change in absorbance (Delta OD/min) versus the log of compound concentration followed by 3-parameter fitting.
EC50s <1 nM (+++++), EC50s 10 nM-1 nM (++++), EC50s 10-100 nM (+++), EC50s 100 nM-1 μM (++), EC50s 1-10 μM (+), EC50s >10 μM (−), or were not determined (ND).

[2] = target: T1, Keap1 (321-609) Kelch domain / TAMRA-labeled 16mer NRF2 peptide (ETGE motif) (Homo sapiens, UniProt Q14145); assay: NRF2-Keap1 FP Assay; format: binding; conditions: 20 nM Keap1 (321-609), 8 nM Tamra labeled peptide
T1 construct: the Kelch domain (321-609) of Keap1 is used
From the text: One model for the NRF2-Keap1 interaction is through two binding sites in the Neh2 domain on NRF2. The two sites are referred to as the DLG binding motif (latch domain, uM affinity) and the ETGE binding motif (hinge domain, nM affinity). The Keap1 protein consists of an N-terminal region (NTR), a broad complex, tramtrack, and brick a'brac domain (BTB), an intervening region (IVR), a double glycine repeat domain (DGR or Kelch), and a C-terminal region. The DLG and ETGE motifs of NRF2's Neh2 domain bind to the Kelch domain of Keap1 at different affinities. In the Keap1 Kelch fluorescence polarization (FP) assay, a TAMRA-labeled 16mer peptide (AFFAQLQLDEETGEFL) containing the ETGE motif of NRF2 and the Kelch domain (321-609) of Keap1 is used. The assay determines if a compound interferes with the binding between Keap1 […] and the TAMRA-labeled peptide. Binding of TAMRA-labeled NRF2 peptide to Keap1 (321-609) results in a high FP signal. If a compound interferes with the binding between the peptide and the protein, it will cause the assay signal to decrease. Thus, assay signal is inversely proportional to binding inhibition.
100 nl of 100× compound dose response curves (serial 3-fold dilutions) in DMSO were stamped using an Echo liquid handling system (Labcyte) into 384-well low volume black assay plates (Greiner, #784076), with DMSO in columns 6 and 18. The top concentration of compound was located in columns 1 and 13. Keap1 (321-609) was diluted to 40 nM (2×) in 1× assay buffer (50 mM Tris, pH 8.0, 100 mM NaCl, 5 mM MgCl2, 1 mM DTT, 2 mM CHAPS, and 0.005% BSA) and 5 ul was added using a Multidrop Combi (Thermo Electron Corporation) equipped with a metal tip dispenser to all wells of the compound plate, except column 18. Column 18 received only 5 ul of assay buffer. Immediately, 5 uL of 16 nM (2×) of Tamra labeled peptide (AFFAQLQLDEETGEFL, 21st Century Biochemicals) was added to all wells of the plate. The plates were spun at 500 rpm for 1 min, incubated for 1 hr at room temperature, and read on an Analyst GT (Molecular Devices) equipped with excitation (530/25 nm) and emission (580/10 nm) filters designed for Tamra probes. A 561 nm dichroic mirror was also used in the Analyst. The final assay concentrations of Keap1 (321-609) and Tamra labeled peptide were 20 nM and 8 nM, respectively. Fluorescence measurements, represented as mP, were used in the transformation of the data. Compound activity was calculated based on percent inhibition, normalized against controls in the assay (Control 1 contains the Tamra peptide and Keap1 (321-609) together (0% response) and control 2 contains the Tamra peptide alone (100% response)). Data analysis was handled using the software package Abase XE (Surrey, United Kingdom. The % inhibition values were calculated by the equation:
100−(100*((compound response−average control 2)/(average control 1−average control2))). For calculation of pIC50s, Abase XE uses a four parameter equation.
IC50s<1 nM (+++++), IC50s 1 nM-10 nM (++++), IC50s 10-100 nM (+++), IC50s 100 nM-1 μM (++), IC50s 1-10 μM (+), IC50s >10 μM (−), or were not determined (ND).

T1 sequence (Q14145 321-609): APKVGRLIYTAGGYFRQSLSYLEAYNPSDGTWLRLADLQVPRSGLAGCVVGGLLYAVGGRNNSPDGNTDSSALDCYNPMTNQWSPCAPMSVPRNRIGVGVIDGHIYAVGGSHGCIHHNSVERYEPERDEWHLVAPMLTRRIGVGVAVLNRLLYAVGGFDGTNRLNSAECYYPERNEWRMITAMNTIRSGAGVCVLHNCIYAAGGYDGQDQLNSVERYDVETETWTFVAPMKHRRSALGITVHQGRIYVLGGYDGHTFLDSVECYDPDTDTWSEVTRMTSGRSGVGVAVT

| Structure (SMILES) | EC50 [1] | EC50 [2] |
| --- | --- | --- |
| Cn1cc([C@@H]2C[C@H]2c2c(C(=O)O)ccn2-c2cccc(CN3Cc4cc(Br)ccc4OC(C)(C)C3)c2)nn1 (racemic) [Example 20] | 0.1 to 1 µM | 0.01 to 0.1 µM |
| Cc1ccc(CN2C[C@@H](C)Cc3ccc(C(F)(F)F)cc3S2(=O)=O)cc1-n1ccc(C(=O)O)c1[C@@H]1C[C@H]1c1cn(C)nn1 (racemic) [Example 11, rac-2-(trans-2-(1-methyl-1H-1,2,3-triazol-4-yl)cyclopropyl)-1-(2-methyl-5-(((S)-4-methyl-1,1-dioxido-8-(trifluoromethyl)-4,5-dihydrobenzo[f][1,2]thiazepin-2(3H)-yl)methyl)phenyl)-1H-pyrrole-3-carboxylic acid] | 0.1 to 1 µM | 0.1 to 1 µM |
| C[C@H]1Cc2ccc(C(F)(F)F)cc2S(=O)(=O)N(Cc2cccc(-n3ccc(C(=O)O)c3[C@@H]3C[C@H]3c3cn(C)nn3)c2)C1 (racemic) [Example 1, 1-(3-(((S)-4-Methyl-1,1-dioxido-8-(trifluoromethyl)-4,5-dihydrobenzo[f]-[1,2]thiazepin-2(3H)-yl)methyl)phenyl)-2-(trans-2-(1-methyl-1H-1,2,3-triazol-4-yl)cyclopropyl)-1H-pyrrole-3-carboxylic acid] | 0.01 to 0.1 µM | 0.01 to 0.1 µM |
| CCCC[C@H]1Cc2ccc(C(F)(F)F)cc2S(=O)(=O)N(Cc2cccc(-n3ccc(C(=O)O)c3[C@@H]3C[C@H]3c3cn(C)nn3)c2)C1 [Example 6, 1-(3-(((S)-4-butyl-1,1-dioxido-8-(trifluoromethyl)-4,5-dihydrobenzo[f][1,2]thiazepin-2(3H)-yl)methyl)phenyl)-2-((1R,2R)-2-(1-methyl-1H-1,2,3-triazol-4-yl)cyclopropyl)-1H-pyrrole-3-carboxylic acid] | < 0.001 µM | 0.01 to 0.1 µM |
| C[C@H](Oc1cccc(-c2cccc(-n3ccc(C(=O)O)c3[C@H]3C[C@@H]3c3cn(C)nn3)c2)c1)C1CCCCC1 [Example 17, 1-(3′-((S)-1-cyclohexylethoxy)-[1,1′-biphenyl]-3-yl)-2-((1S,2S)-2-(1-methyl-1H-1,2,3-triazol-4-yl)cyclopropyl)-1H-pyrrole-3-carboxylic acid] | 0.01 to 0.1 µM | 0.01 to 0.1 µM |
| C[C@H]1Cc2ccc(C(F)(F)F)cc2S(=O)(=O)N(C2CCc3c2cccc3-n2ccc(C(=O)O)c2C2CC2)C1 (mixture of isomers) [Example 12, 2-Cyclopropyl-1-(1-((S)-4-methyl-1,1-dioxido-8-(trifluoromethyl)-4,5-dihydrobenzo[f][1,2]thiazepin-2(3H)-yl)-2,3-dihydro-1H-inden-4-yl)-1H-pyrrole-3-carboxylic acid] | 0.1 to 1 µM | 1 to 10 µM |
| Cc1c(CN2C[C@@H](C)Cc3ccc(C(F)(F)F)cc3S2(=O)=O)cccc1-n1ccc(C(=O)O)c1[C@@H]1C[C@H]1c1cn(C)nn1 (racemic) [Example 10, rac-2-(trans-2-(1-methyl-1H-1,2,3-triazol-4-yl)cyclopropyl)-1-(2-methyl-3-(((S)-4-methyl-1,1-dioxido-8-(trifluoromethyl)-4,5-dihydrobenzo[f][1,2]thiazepin-2(3H)-yl)methyl)phenyl)-1H-pyrrole-3-carboxylic acid] | 0.1 to 1 µM | 0.1 to 1 µM |
| C[C@H](Oc1cccc(-c2cccc(-n3ccc(C(=O)O)c3[C@@H]3C[C@H]3c3cn(C)nn3)c2)c1)C1CCCCC1 (racemic) [Example 13, 1-(3′-((S)-1-Cyclohexylethoxy)-[1,1′-biphenyl]-3-yl)-2-(trans-2-(1-methyl-1H-1,2,3-triazol-4-yl)cyclopropyl)-1H-pyrrole-3-carboxylic acid] | 0.01 to 0.1 µM | 0.01 to 0.1 µM |
| CCC[C@@H]1CCCCN1C(=O)c1cccc(-c2cccc(-n3ccc(C(=O)O)c3[C@@H]3C[C@H]3c3cn(C)nn3)c2)c1C(F)(F)F [Example 24] | 1 to 10 µM | 0.1 to 1 µM |
| CCC[C@@H]1CCCCN1C(=O)c1cccc(-c2cccc(-n3ccc(C(=O)O)c3[C@@H]3C[C@H]3c3cn(C)nn3)c2)c1Br [Example 22] | 0.01 to 0.1 µM | 0.01 to 0.1 µM |
